Results from patent US20260363243A1 (priority 2022, published 2026).

Assays:
Phytophthora capsici = assay: In vitro inhibition of hypha growth of oomycete pathogens (microplate, OD595): Phytophthora capsici; format: cell-based; settings: for inhibition at 0.005 µg/mL / inhibition at 0.05 µg/mL / inhibition at 0.5 µg/mL / inhibition at 5 µg/mL: read-out: inhibitory activity on hypha growth
Phytophthora sojae = assay: In vitro inhibition of hypha growth of oomycete pathogens (microplate, OD595): Phytophthora sojae; format: cell-based; settings: for inhibition at 0.005 µg/mL / inhibition at 0.05 µg/mL / inhibition at 0.5 µg/mL / inhibition at 5 µg/mL: read-out: inhibitory activity on hypha growth
Phytophthora infestans = assay: microbe, parasite or virus in culture; format: cell-based; settings: for inhibition at 0.005 µg/mL / inhibition at 0.05 µg/mL / inhibition at 0.5 µg/mL / inhibition at 5 µg/mL: read-out: inhibitory activity on hypha growth
Phytophthora nicotianae = assay: In vitro inhibition of hypha growth of oomycete pathogens (microplate, OD595): Phytophthora nicotianae; format: cell-based; settings: for inhibition at 0.005 µg/mL / inhibition at 0.05 µg/mL / inhibition at 0.5 µg/mL / inhibition at 5 µg/mL: Phytophthora nicotianae, read-out: inhibitory activity on hypha growth
[1] = tested on: Cucumber downy mildew (Pseudoperonospora cubensis); assay: Field efficacy test for controlling cucumber downy mildew
Description: The test was carried out according to the Guidelines for the Field Efficacy Trials of Pesticides (Part 1): Fungicides Against Downy Mildew of Cucumber (GB/T17980.26-2000). The test site was a mature vegetable base of Hushu in Nanjing, Jiangsu Province. Cucumber downy mildew (Pseudoperonospora cubensis) was used as the target, oxathiapiprolin and Yin Fali were used as control agents. The test crops was cucumber and the variety was ‘Green Core’. The plots were arranged in a randomized block design, with each plot approximately 8 m^2 and each treatment replicated three times. The whole stem and leaf spray was employed, the test was carried out at the early stage of cucumber downy mildew occurrence, and the agents were applied twice consecutively, with the second application 5 days after the first one. The investigation method was to take one investigation point for every row of cucumbers in each treatment district, assess the severity of downy mildew of all leaves of all cucumber plants, and calculate the disease index and the prevention effect.

cucumber downy mildew = assay: Activity in vivo for inhibiting cucumber downy mildew (potting method, greenhouse)
Excerpt: The test and investigation method refers to a SOP-SC-1098 cucumber downy mildew potting method in the fungicide section of Standard operation Specification for testing biological Activity of pesticides written by Kang Zhuo and Gu Baogen.

[2] = after the first pesticide application, 50 mg/L
[3] = after the second pesticide application, 50 mg/L
[4] = 0.005 mg/L, re-screening, Table 2
[5] = 0.02 mg/L, re-screening, Table 2
[6] = 0.078 mg/L, re-screening, Table 2
[7] = 0.312 mg/L, re-screening, Table 2
[8] = 1.25 mg/L, re-screening, Table 2

CCOC(CC(=O)N1CCC(c2nc(C3=NOC(c4c(F)cccc4F)C3)cs2)CC1)OC (stereo not shown) [II-3] was tested, and the “inhibitory activity compared with OXA” value (Phytophthora capsici; 5, 0.5 and 0.05 mg/L, in words) was “comparable to that of the control agent OXA”, the inhibition at 0.005 µg/mL (Phytophthora capsici) was 90 to 100% and the inhibition at 0.05 µg/mL (Phytophthora capsici) was 90 to 100%. For the same molecule, the inhibition at 0.5 µg/mL (Phytophthora capsici) was 90 to 100%, the inhibition at 5 µg/mL (Phytophthora capsici) was 90 to 100% and the “inhibitory activity compared with OXA” value (Phytophthora sojae; 5, 0.5 and 0.05 mg/L, in words) was “comparable to that of the control agent OXA”. It also gave an inhibition at 0.005 µg/mL (Phytophthora sojae) of 75 to 90%, an inhibition at 0.05 µg/mL (Phytophthora sojae) of 90 to 100% and an inhibition at 0.5 µg/mL (Phytophthora sojae) of 90 to 100%. The inhibition at 5 µg/mL (Phytophthora sojae) was 90 to 100%, the “inhibitory activity compared with OXA” value (Phytophthora infestans; 5, 0.5 and 0.05 mg/L, in words) was “comparable to that of the control agent OXA” and the inhibition at 0.005 µg/mL (Phytophthora infestans) was 75 to 90%. For the same molecule, the inhibition at 0.05 µg/mL (Phytophthora infestans) was 90 to 100%, the inhibition at 0.5 µg/mL (Phytophthora infestans) was 90 to 100% and the inhibition at 5 µg/mL (Phytophthora infestans) was 90 to 100%. For the same molecule, the inhibition at 0.005 µg/mL (Phytophthora nicotianae) was 90 to 100%, the inhibition at 0.05 µg/mL (Phytophthora nicotianae) was 90 to 100% and the inhibition at 0.5 µg/mL (Phytophthora nicotianae) was 90 to 100%. For the same molecule, the inhibition at 5 µg/mL (Phytophthora nicotianae) was 90 to 100%, the “inhibitory activity compared with OXA” value (Phytophthora nicotianae; Pythium nicotianae, 5, 0.5 and 0.05 mg/L, in words) was “comparable to that of the control agent OXA” and the “control effect compared with OXA and Yinfali” value ([1]; 50 mg/L, in words) was “better than that of the control agents OXA and Yinfali”. For the same molecule, the Average control effect [1, 2] was 66.63%, the Average disease index [1, 2] was 2.80 and the Average control effect [1, 3] was 79.72%. For the same molecule, the Average disease index [1, 3] was 6.93, the “effect in controlling cucumber downy mildew in the field” value ([1]; in words) was “good effect in controlling cucumber downy mildew, it can effectively protect new leaves and can effectively inhibit the spread of disease spots on the infected leaves” and the “efficacy compared with OXA” value (cucumber downy mildew; 0.005 mg/L, in words) was “comparable to that of the control agent OXA”. The Control effect (cucumber downy mildew; [4]) was “A (90%≤A≤100%)”, the Control effect (cucumber downy mildew; [5]) was “A (90%≤A≤100%)” and the “efficacy compared with dimethomorph and cyazofamid” value (cucumber downy mildew; 0.078 mg/L, in words) was “superior to that of dimethomorph and cyazofamid”. For the same molecule, the “efficacy compared with oxathiapiprolin” value (cucumber downy mildew; 0.078 mg/L, in words) was “equivalent to that of oxathiapiprolin at the same concentration”, the Control effect (cucumber downy mildew; 0.078 mg/L, re-screening) was at least 90% and the Control effect (cucumber downy mildew; [6]) was “A (90%≤A≤100%)”. The Control effect (cucumber downy mildew; [7]) was “A (90%≤A≤100%)”, the Control effect (cucumber downy mildew; 0.625 mg/L, Table 3) was “A (90% ≤ A ≤ 100%)” and the Control effect (cucumber downy mildew; 1.25 mg/L, Table 1) was “A (90%≤A≤100%)”. The Control effect (cucumber downy mildew; [8]) was “A (90%≤A≤100%)”, the Control effect (cucumber downy mildew; 2.5 mg/L, Table 3) was “A (90% ≤ A ≤ 100%)” and the Control effect (cucumber downy mildew; 5 mg/L, Table 1) was “A (90%≤A≤100%)”. The Control effect (cucumber downy mildew; 10 mg/L, Table 3) was “A (90% ≤ A ≤ 100%)”, the Control effect (cucumber downy mildew; 20 mg/L, Table 1) was “A (90%≤A≤100%)” and the bactericidal activity (cucumber downy mildew; re-screening, in words) was “excellent bactericidal activity”.

Molecule Cc1cc(C(F)(F)F)nn1CC(=O)N1CCC(c2nc(C3=NOC(c4c(F)cccc4F)C3)cs2)CC1 (stereo not shown) [OXA, oxathiapiprolin, reference compound] has an inhibition at 0.005 µg/mL (Phytophthora capsici) of 90 to 100%, an inhibition at 0.05 µg/mL (Phytophthora capsici) of 90 to 100% and an inhibition at 0.5 µg/mL (Phytophthora capsici) of 90 to 100%. The inhibition at 5 µg/mL (Phytophthora capsici) was 90 to 100%, the inhibition at 0.005 µg/mL (Phytophthora sojae) was 90 to 100% and the inhibition at 0.05 µg/mL (Phytophthora sojae) was 90 to 100%. For the same molecule, the inhibition at 0.5 µg/mL (Phytophthora sojae) was 90 to 100%, the inhibition at 5 µg/mL (Phytophthora sojae) was 90 to 100% and the inhibition at 0.005 µg/mL (Phytophthora infestans) was 90 to 100%. For the same molecule, the inhibition at 0.05 µg/mL (Phytophthora infestans) was 90 to 100%, the inhibition at 0.5 µg/mL (Phytophthora infestans) was 90 to 100% and the inhibition at 5 µg/mL (Phytophthora infestans) was 90 to 100%. It also gave an inhibition at 0.005 µg/mL (Phytophthora nicotianae) of 90 to 100%, an inhibition at 0.05 µg/mL (Phytophthora nicotianae) of 90 to 100% and an inhibition at 0.5 µg/mL (Phytophthora nicotianae) of 90 to 100%. The inhibition at 5 µg/mL (Phytophthora nicotianae) was 90 to 100%, the Average control effect [1, 2] was 36.02% and the Average disease index [1, 2] was 5.36. The Average control effect [1, 3] was 74.87%, the Average disease index [1, 3] was 8.59 and the Control effect (cucumber downy mildew; [4]) was “A (90%≤A≤100%)”. For the same molecule, the Control effect (cucumber downy mildew; [5]) was “A (90%≤A≤100%)”, the Control effect (cucumber downy mildew; [6]) was “A (90%≤A≤100%)” and the Control effect (cucumber downy mildew; [7]) was “A (90%≤A≤100%)”. For the same molecule, the Control effect (cucumber downy mildew; 0.625 mg/L, Table 3) was “A (90% ≤ A ≤ 100%)”, the Control effect (cucumber downy mildew; [8]) was “A (90%≤A≤100%)” and the Control effect (cucumber downy mildew; 2.5 mg/L, Table 3) was “A (90% ≤ A ≤ 100%)”. For the same molecule, the Control effect (cucumber downy mildew; 10 mg/L, Table 3) was “A (90% ≤ A ≤ 100%)”.
